Test results: patent publication US20030153056A1, “Glycosyltransferase proteins” (priority 2000, published 2003)
Residue numbers refer to the chain shown, from its start. Each block holds one molecule with its values, some of them ahead of it.

Assays:
Fringe = target: T1, Fringe (Drosophila melanogaster, UniProt Q24342); experiment: Fringe glycosyltransferase assay, transfer of 14C-labelled UDP-donor sugars onto acceptor sugars; assay type: biochemical; conditions: for Acceptor for Fringe, in words: microsomal fractions of High Five cells
T1 construct: made in house; host or cells: High Five insect cells (baculovirus vector pVL1393); solubilised microsomal fractions
T1 sequence (Q24342 1-412): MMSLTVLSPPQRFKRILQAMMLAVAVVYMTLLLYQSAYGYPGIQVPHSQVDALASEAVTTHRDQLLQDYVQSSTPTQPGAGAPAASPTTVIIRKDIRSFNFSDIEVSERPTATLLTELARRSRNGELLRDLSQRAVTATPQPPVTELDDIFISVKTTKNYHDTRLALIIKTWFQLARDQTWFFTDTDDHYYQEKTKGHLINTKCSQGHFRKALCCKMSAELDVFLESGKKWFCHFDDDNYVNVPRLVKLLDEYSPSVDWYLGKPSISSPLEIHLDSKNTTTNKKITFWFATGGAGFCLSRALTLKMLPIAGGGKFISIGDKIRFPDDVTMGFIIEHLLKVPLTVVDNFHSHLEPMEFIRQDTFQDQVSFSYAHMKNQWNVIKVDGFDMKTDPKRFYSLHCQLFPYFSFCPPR
Procedure: Fringe-Myc and Fringe-NNN-myc were cloned into baculovirus vector pVL1393 (Pharmingen) and expressed in High Five™ cells. Microsomal fractions were prepared by hypotonic lysis ultracentrifugation and solubilised 1:2 (vol/vol) in 20 mM Cacodylate pH 6.5, 1% Triton-CF54, 5 MM MnCl2 containing Leupeptin and Aprotinin as described previously (Amado et al., 1998). For glycosyltransferase assays, 5 μl of this suspension were added to a total of 50 μl reaction mixture containing 25 mM Cacodylate pH 6.5, 0.25% Triton-CF54, 5 mM MnCl2, 500 mM free sugar, 100 μM UDP-^14C-sugar (1280-2000 cpm/nmol). Reactions were incubated at 37° C. for 45-60 minutes, followed by Dowex-1 anion exchange chromatography and scintillation counting of 50% of the flow-through.
To ask whether Fringe has intrinsic glycosyltransferase activity, Fringe-wt and Fring-NNN were produced by baculovirus-infection of insect cells. Microsomal fractions enriched for Golgi membranes were partially solubilized and assayed for the ability to the expressed proteins to catalyze the transfer of ^14C-labelled UDP-donor sugars onto acceptor sugars. A variety of different donor/acceptor combinations were tested (FIG. 5b).
Enzyme activity was measured by transfer of ^14C-labelled donor sugars (as UDP-conjugates) onto acceptor sugars. In FIG. 5b, average results from two experiments are shown. Donors tested were UDP-Glucose (Glc), UDP-Galactose (Gal), UDP-N-acetyl-Glucosamine (GlcNAc) and N-acetyl-Galactosamine (GalNAc). Acceptors tested were Glucose, Galactose, GlcNAc, GalNAc and Fucose.

human β3GnT2 = target: T2, human β3GnT2 (Homo sapiens, UniProt Q9NY97); experiment: human β3GnT2 activity with glycolipid acceptors; assay type: biochemical; conditions: not shown
T2 sequence (Q9NY97 1-397): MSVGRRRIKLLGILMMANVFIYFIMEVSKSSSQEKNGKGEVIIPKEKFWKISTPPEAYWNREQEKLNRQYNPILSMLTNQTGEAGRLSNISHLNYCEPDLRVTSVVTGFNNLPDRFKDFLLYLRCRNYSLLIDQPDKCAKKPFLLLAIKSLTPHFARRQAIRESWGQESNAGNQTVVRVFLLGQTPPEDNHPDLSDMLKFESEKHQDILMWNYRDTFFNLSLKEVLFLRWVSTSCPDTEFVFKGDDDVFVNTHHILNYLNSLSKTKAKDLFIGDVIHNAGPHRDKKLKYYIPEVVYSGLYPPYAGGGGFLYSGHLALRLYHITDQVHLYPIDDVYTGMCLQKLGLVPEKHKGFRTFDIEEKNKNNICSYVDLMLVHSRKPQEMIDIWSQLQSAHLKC
From the text: It is interesting to note that Brainiac also functions with Lac-Cer, a glycolipid which has never been described from insects. Brainiac is the ancestral gene of a very large homologous β3glycosyltransferase gene family in mammalian cells, and the members of this family with closest sequence similarity to Brainiac is represented by a family of β3GlcNAc-transferases with similar specificity for Lac-Cer (Shiraishi et al., 2001, J. Biol. Chem., 276: 3498-3507.). One of these designated human β3GnT2 was analysed in detail and shown to use Lac-Cer but not Mac-Cer (not shown).

Brainiac [1] = target: T3, Brainiac (Drosophila melanogaster, UniProt Q24157); experiment: Brainiac activity towards glycosphingolipids; assay type: biochemical; conditions: 10 μg purified glycolipid, 300 μM UDP-14C-N-acetylglucosamine, FIG. 8
T3 construct: The full coding region of Brainiac was prepared by PCR using genomic DNA; made in house; host or cells: High Five insect cells (baculovirus vector pVL1393); microsomal fractions
T3 sequence (Q24157 1-325): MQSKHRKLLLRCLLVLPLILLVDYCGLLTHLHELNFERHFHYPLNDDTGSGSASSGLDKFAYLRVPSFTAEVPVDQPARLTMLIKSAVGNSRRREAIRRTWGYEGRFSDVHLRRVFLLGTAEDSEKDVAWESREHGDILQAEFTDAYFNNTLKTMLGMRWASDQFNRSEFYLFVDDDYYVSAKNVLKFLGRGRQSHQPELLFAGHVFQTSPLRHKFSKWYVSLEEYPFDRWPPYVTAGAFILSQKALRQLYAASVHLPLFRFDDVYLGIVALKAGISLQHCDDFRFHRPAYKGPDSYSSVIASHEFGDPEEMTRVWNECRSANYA
Procedure: FIG. 8: Brainiac activity towards glycosphingolipids purified from insect cells. Microsomal fractions (1.5 mg) of insect cells transfected with pVL-brainiac and pVL-fringe were used as the enzyme source. Reactions contained 10 μg of purified glycolipids and 300 μM of UDP-^14C-N-acetylglucosamine (8200 cpm/nmol). Products were purified on C18-silica cartridges, spotted on HPTLC-plates, developed in 60:35:8 (chloroform:methanol:water) and exposed for autoradiography.
(§1) Brainiac-full was cloned into baculovirus vector pVL1393 (Pharmingen) and expressed in High Five cells. Microsomal fractions were prepared as described above for Fringe but with 0.5% N-octylglucoside as Triton X-100 and related detergents destroyed the activity. Initial analysis of activity was done with five monosaccharides and four donor sugar nucleotides as described in FIG. 5 for Fringe. Assays with the acceptors listed in Table 1 were performed as described for Fringe except no additional detergent was added. Reactions with glycolipid substrates were performed in the presence of 0.5% N-octylglucoside in 50 ul reaction volume containing 10 μg glycolipid.
Glycolipids were obtained from Sigma or purified from High Five insect cells grown in serum free medium. […]

[2] = target: T4, Brainiac β1-3-N-acetylglucosaminyltransferase (Drosophila melanogaster, UniProt Q24157); experiment: Substrate specificities of Brainiac β1-3-N-acetylglucosaminyltransferase (acceptor panel, microsomal preparations); assay type: biochemical; conditions: microsomes of pVL-Brainiac infected High Five cells, background of irrelevant construct subtracted, donor UDP-GlcNAc
T4 construct: The full coding region of Brainiac was prepared by PCR using genomic DNA; made in house; host or cells: High Five insect cells (baculovirus vector pVL1393); microsomal fractions
T4 sequence (Q24157 1-325): T3 sequence (Q24157 1-325)

Brainiac [3] = target: T3, Brainiac; experiment: Initial analysis of Brainiac glycosyltransferase activity with monosaccharides and four UDP sugar nucleotides; assay type: biochemical; conditions: panel of monosaccharides, donor UDP-GlcNAc, High Five cell microsomes
Procedure: as §1
In the latter case the acceptor sugar was not determined.

Notch = target: T5, Notch (Drosophila melanogaster, UniProt P07207); experiment: Delta-AP binding to Notch transfected S2 cells; assay type: cell-based; conditions: co-expressed with Notch in S2 cells
T5 construct: expressed in transfected cells; host or cells: Drosophila Schneider S2 cells, transient transfection, pRmHa3
Procedure: Cell culture and Binding assays: cDNAs for expression in Schneider S2 cells were cloned into pRmHa3. Cells were transiently transfected by the CaPO4 method using 6-8 μg of DNA per well in 6 well plates. Expression was induced by addition of 0.7 mM CuSO4 for 2 days. Conditioned medium was collected from Notch-AP and Delta-AP transfected cells 2 days after induction. AP activity was adjusted to normalise activity levels of Notch-AP or Delta-AP expressed with or without Fringe. Binding was performed as described in Cheng and Flanagan, 1994. In brief, AP-containing supernatants were supplemented with 0.1% NaN3, and incubated 90 min at room temperature. Cells were washed 5 times in HBSS containing 0.05% BSA and 0.1% azide, and lysed in 10 mM Tris pH 8, 1% Triton-X100. Endogenous AP was inactivated by heat treatment for 10 min 60° C. and the lysates clarified by centrifugation. AP activity was measured in 1M Diethanolamine, 1 mM MgCl2, 5 mM para-nitrophenyl phosphate. Bound AP activity was quantified in 96 well plates using a microplate reader and Micromanager software (BioRad). An additional replicate of each transfection was prepared for immunoblot analysis. Lysates were prepared separately for Immunoblot analysis to allow inclusion of protease inhibitors which are not used in the binding assay. To measure interaction of Delta-AP with transiently transfected S2 cells, bound AP activity was quantified in an enzymatic colour reaction. Cells transfected with empty vector were used as a control. […] AP activity is shown in mOD units/minute in cell extracts (replicate experiments are shown in this figure). In this experiment Fringe stimulated binding by over 50 fold. […] However, the assay allows measurement of Fringe-dependent stimulation of Delta-AP binding.

[4] = test system: Notch activation in the wing imaginal disc; experiment: Ectopic expression under patched GAL4 control in wing imaginal disc, Wingless expression; assay type: in vivo, Drosophila; conditions: expressed under patched GAL4 control
From the text: (e), (f), (g) Wing imaginal discs labelled to visualise Wingless protein (left panel) and the myc epitope tag (right panel). (e) patched^GAL4/+wing disc. Wingless is expressed in a continuous stripe along the DV boundary. (f) patched^GAL4/UAS-Fringe-GalNT3-myc. Golgi-tethered Fringe-GalNT3-myc expression in the patched^GAL4 stripe is shown in the right-hand panel. The endogenous Wingless stripe is interrupted where the Golgi-tethered Fringe stripe crosses the DV boundary (left panel). At the anterior-posterior compartment boundary the Golgi-tethered Fringe stripe abuts the endogenous Wingless stripe and induces ectopic expression of Wingless in the ventral compartment. This pattern is identical to that reported for ectopic expression of wild-type (secreted) Fringe shown in panel (g) for the Golgi-tethered Fringe D: dorsal compartment. V ventral compartment. Posterior is to the right. […] These effects precisely match those caused by expression of wild-type Fringe (not shown; see Panin et al., 1997; Kim et al., 1995). […] Cells were transfected to express Notch, wild-type Fringe-wt-myc, or mutant Fringe-NNN-myc as indicated. Cells transfected with empty vector were used as a control. Fringe-NNN-Myc has no activity in the binding assay, despite being expressed at higher levels than Fringe-wt-Myc.

T5 sequence (P07207 53-2703): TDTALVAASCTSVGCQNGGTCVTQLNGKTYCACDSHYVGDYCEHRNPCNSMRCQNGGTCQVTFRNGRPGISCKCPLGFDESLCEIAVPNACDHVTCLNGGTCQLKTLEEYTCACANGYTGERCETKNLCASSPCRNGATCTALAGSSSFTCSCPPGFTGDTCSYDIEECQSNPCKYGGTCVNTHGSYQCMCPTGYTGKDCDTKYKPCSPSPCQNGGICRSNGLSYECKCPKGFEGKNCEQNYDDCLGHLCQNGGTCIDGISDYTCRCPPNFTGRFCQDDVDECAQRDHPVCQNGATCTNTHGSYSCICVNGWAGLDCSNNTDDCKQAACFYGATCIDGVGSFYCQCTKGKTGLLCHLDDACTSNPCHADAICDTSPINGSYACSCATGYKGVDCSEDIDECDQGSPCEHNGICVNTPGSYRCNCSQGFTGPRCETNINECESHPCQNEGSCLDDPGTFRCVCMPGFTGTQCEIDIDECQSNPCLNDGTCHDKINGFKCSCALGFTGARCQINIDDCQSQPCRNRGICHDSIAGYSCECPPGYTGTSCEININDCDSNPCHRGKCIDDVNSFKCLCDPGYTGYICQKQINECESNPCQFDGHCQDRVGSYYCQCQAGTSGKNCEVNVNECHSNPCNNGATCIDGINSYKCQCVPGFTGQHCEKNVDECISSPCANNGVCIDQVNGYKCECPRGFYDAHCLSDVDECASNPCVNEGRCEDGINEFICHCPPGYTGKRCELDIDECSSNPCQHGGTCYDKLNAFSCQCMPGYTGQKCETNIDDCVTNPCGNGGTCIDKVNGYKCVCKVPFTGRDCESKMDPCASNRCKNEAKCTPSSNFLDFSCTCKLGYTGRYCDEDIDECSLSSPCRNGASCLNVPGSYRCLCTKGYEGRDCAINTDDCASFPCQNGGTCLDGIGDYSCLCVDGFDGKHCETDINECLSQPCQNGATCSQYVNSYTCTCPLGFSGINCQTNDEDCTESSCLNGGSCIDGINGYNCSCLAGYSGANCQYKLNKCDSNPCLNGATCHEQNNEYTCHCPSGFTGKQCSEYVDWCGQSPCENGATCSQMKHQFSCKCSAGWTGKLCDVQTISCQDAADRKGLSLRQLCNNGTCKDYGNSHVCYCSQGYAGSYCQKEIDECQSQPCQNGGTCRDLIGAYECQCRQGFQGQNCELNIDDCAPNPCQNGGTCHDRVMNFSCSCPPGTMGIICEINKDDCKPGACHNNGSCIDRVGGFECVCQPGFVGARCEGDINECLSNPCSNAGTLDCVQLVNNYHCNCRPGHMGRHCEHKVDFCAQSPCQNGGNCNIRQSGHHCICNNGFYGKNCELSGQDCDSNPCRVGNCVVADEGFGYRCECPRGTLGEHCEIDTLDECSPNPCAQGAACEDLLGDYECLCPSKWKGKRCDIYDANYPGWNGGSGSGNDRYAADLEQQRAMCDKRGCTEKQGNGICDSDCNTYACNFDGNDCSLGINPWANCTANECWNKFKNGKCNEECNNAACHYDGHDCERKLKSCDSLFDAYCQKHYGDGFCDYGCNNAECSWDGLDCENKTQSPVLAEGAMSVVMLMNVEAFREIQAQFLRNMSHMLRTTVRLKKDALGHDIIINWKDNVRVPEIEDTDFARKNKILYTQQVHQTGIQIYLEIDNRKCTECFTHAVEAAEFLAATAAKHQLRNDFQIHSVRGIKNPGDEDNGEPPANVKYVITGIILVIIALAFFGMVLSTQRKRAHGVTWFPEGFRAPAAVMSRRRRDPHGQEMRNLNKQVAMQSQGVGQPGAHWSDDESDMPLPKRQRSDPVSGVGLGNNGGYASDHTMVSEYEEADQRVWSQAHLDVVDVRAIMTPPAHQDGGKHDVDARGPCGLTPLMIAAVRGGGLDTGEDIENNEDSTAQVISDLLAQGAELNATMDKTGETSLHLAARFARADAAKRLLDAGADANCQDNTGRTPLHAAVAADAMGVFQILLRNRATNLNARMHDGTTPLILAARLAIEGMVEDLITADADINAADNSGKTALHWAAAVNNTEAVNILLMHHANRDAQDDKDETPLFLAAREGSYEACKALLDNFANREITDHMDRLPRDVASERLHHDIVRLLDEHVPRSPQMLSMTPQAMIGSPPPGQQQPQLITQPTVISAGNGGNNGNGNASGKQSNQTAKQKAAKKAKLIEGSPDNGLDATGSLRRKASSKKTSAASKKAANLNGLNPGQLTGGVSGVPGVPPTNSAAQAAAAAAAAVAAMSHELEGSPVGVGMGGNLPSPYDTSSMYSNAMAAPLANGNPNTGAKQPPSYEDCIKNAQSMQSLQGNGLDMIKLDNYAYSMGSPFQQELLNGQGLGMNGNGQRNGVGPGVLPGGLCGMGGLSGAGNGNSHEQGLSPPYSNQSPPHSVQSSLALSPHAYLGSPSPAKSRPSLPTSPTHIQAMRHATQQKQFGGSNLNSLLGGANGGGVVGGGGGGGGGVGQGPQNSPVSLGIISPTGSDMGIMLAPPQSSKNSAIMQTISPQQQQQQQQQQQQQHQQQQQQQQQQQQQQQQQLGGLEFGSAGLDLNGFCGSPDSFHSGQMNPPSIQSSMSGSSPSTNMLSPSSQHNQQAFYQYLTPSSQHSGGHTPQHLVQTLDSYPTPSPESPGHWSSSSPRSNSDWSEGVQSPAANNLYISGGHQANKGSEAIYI

Glycosyltransferase activity of Fringe-wt microsome lysate over background level observed with Fringe-NNN (Fringe; donor UDP-N-acetylglucosamine (GlcNAc), average of two experiments, FIG. 5b): 18 fold
Molecule: C[C@H](O)[C@@H](O)[C@@H](O)[C@H](O)C=O [Fucose]

Acceptor for Fringe, in words (Fringe): did not act as acceptors
Molecule: C[C@@H]1O[C@H](Sc2ccc([N+](=O)[O-])cc2)[C@@H](O)[C@H](O)[C@@H]1O [β-L-Fuc-1-thio-p-Nph]

Glycolipid used by human β3GnT2, in words (human β3GnT2): not Mac-Cer | Glycolipid substrate for Brainiac, in words (Brainiac [1]): efficient substrate
Molecule: Manβ1-4Glcβ1-Cer

Acceptor for Fringe, in words (Fringe): did not act as acceptors | Brainiac activity with substrate ([2]; substrate 2 mM): 0.02 nmol/h/mg | Brainiac activity with substrate ([2]; substrate 20 mM): 0.03 nmol/h/mg
Molecule: C[C@@H]1O[C@@H](Oc2ccc([N+](=O)[O-])cc2)[C@@H](O)[C@H](O)[C@@H]1O [L-Fucα1-pNph]

Acceptor for Brainiac, in words (initial analysis) (Brainiac [3]): poor substrate | Brainiac activity with substrate ([2]; substrate 2 mM): 0.00 nmol/h/mg | Brainiac activity with substrate ([2]; substrate 20 mM): 0.05 nmol/h/mg
Molecule: C[C@@H]1OC(O)[C@@H](O)[C@H](O)[C@@H]1O (stereo partly drawn) [L-Fuc]

Acceptor for Brainiac, in words (initial analysis) (Brainiac [3]): best acceptor | Brainiac activity with substrate ([2]; substrate 2 mM): 0.28 nmol/h/mg | Brainiac activity with substrate ([2]; substrate 20 mM): 1.70 nmol/h/mg
Molecule: OC[C@H]1OC(O)[C@@H](O)[C@@H](O)[C@@H]1O (stereo partly drawn) [D-Man]

Glycolipid used by human β3GnT2, in words (human β3GnT2): use Lac-Cer | Glycolipid substrate for Brainiac, in words (Brainiac [1]): served as a substrate
Molecule: Galβ1-4Glcβ1-Cer

Effect on Delta-AP binding, in words (Notch; listed as Fringe-NNN-Myc): no activity
B1: Fringe-NNN: Fringe-myc with amino acids D236, 237 and 238 converted to asparagine residues (protein, UniProt Q24342 1-412, looked up, variant D236N D237N D238N)
Fringe glycosyltransferase: T1 sequence (Q24342 1-412) with D236N, D237N, D238N
modifications: C-terminal myc tag
notes: Fringe-myc with amino acids D236, 237 and 238 converted to asparagine residues
Effect on Delta-AP binding, in words (Notch): did not increase Delta-AP binding above background levels | Effect on Wingless expression / Notch activation in wing disc, in words [4]: did not cause Notch activation in the ventral compartment
